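Growth conditions: 96-well plates. Treatment: test compound, 48 hours, 5 concentrations. Analysis: linear interpolation between bracketing concentrations; unreached endpoints set to highest concentration. At the GI50, growth is halved.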 Calls of active or inactive are those of the source. Cut-off read from the data, not from the text of the source: active = GI50 up to about 1.1 µM and inactive = higher.
Legend:
Experiment in all cases: inhibition of tumour cell growth, NCI panel, 48 h
[1] = tested on: OVCAR-5
[2] = tested on: SF-539
[3] = tested on: M14
[4] = tested on: U-251
[5] = tested on: CAKI-1
[6] = tested on: HT-29
[7] = tested on: IGROV-1
[8] = tested on: A549
[9] = tested on: K562
[10] = tested on: SF-295
[11] = tested on: SF-268
[12] = tested on: NCI-H23
[13] = tested on: SR
[14] = tested on: T47D
[15] = tested on: SK-OV-3
[16] = tested on: SW-620
[17] = tested on: SK-MEL-5
[18] = tested on: COLO 205
[19] = tested on: OVCAR-4
[20] = tested on: MDA-MB-231
[21] = tested on: RPMI-8226
[22] = tested on: SNB-75
[23] = tested on: PC-3
[24] = tested on: HOP-92
[25] = tested on: OVCAR-3
[26] = tested on: TK-10
[27] = tested on: MCF7
[28] = tested on: UACC-257
[29] = tested on: MDA-MB-435
[30] = tested on: NCI-H522
[31] = tested on: KM12
[32] = tested on: HL-60
[33] = tested on: SN12C
[34] = tested on: DU-145
[35] = tested on: HCT-116
[36] = tested on: MDA-N
[37] = tested on: RXF 393
[38] = tested on: OVCAR-8
[39] = tested on: NCI-H226
[40] = tested on: HCT-15
[41] = tested on: EKVX
[42] = tested on: HOP-62
[43] = tested on: SNB-19
[44] = tested on: MOLT-4
[45] = tested on: NCI-H460
[46] = tested on: UACC-62
[47] = tested on: A498
[48] = tested on: 786-0
[49] = tested on: Malme-3M
[50] = tested on: UO-31
[51] = tested on: SK-MEL-28
[52] = tested on: SK-MEL-2
[53] = tested on: Hs-578T
[54] = tested on: ACHN
[55] = tested on: BT-549
[56] = tested on: NCI/ADR-RES
[57] = tested on: LOX IMVI
[58] = tested on: CCRF-CEM
[59] = tested on: HCC 2998

For O=C(O)CSCC(=O)c1ccccc1, the GI50 [1] was > 100 µM (inactive), the GI50 [2] was > 100 µM (inactive) and the GI50 [3] was > 100 µM (inactive). For the same compound, the GI50 [4] was > 100 µM (inactive), the GI50 [5] was > 100 µM (inactive) and the GI50 [6] was > 100 µM (inactive). The GI50 [7] was > 100 µM (inactive), the GI50 [8] was > 100 µM (inactive) and the GI50 [9] was > 100 µM (inactive). The GI50 [10] was > 100 µM (inactive), the GI50 [11] was > 100 µM (inactive) and the GI50 [12] was > 100 µM (inactive). The GI50 [13] was > 100 µM (inactive), the GI50 [14] was > 100 µM (inactive) and the GI50 [15] was > 100 µM (inactive). For the same compound, the GI50 [16] was > 100 µM (inactive), the GI50 [17] was > 100 µM (inactive) and the GI50 [18] was > 100 µM (inactive). For the same compound, the GI50 [19] was > 100 µM (inactive), the GI50 [20] was > 100 µM (inactive) and the GI50 [21] was > 100 µM (inactive). For the same compound, the GI50 [22] was > 100 µM (inactive), the GI50 [23] was > 100 µM (inactive) and the GI50 [24] was > 100 µM (inactive). The GI50 [25] was > 100 µM (inactive), the GI50 [26] was > 100 µM (inactive) and the GI50 [27] was > 100 µM (inactive). The GI50 [28] was > 100 µM (inactive), the GI50 [29] was > 100 µM (inactive) and the GI50 [30] was > 100 µM (inactive). For the same compound, the GI50 [31] was > 100 µM (inactive), the GI50 [32] was > 100 µM (inactive) and the GI50 [33] was > 100 µM (inactive). The GI50 [34] was > 100 µM (inactive), the GI50 [35] was > 100 µM (inactive) and the GI50 [36] was > 100 µM (inactive). For the same compound, the GI50 [37] was > 100 µM (inactive), the GI50 [38] was > 100 µM (inactive) and the GI50 [39] was > 100 µM (inactive). For the same compound, the GI50 [40] was over 100 µM, the GI50 [41] was > 100 µM (inactive) and the GI50 [42] was > 100 µM (inactive). The GI50 [43] was > 100 µM (inactive), the GI50 [44] was > 100 µM (inactive) and the GI50 [45] was > 100 µM (inactive). For the same compound, the GI50 [46] was > 100 µM (inactive), the GI50 [47] was > 100 µM (inactive) and the GI50 [48] was > 100 µM (inactive). For the same compound, the GI50 [49] was > 100 µM (inactive), the GI50 [50] was > 100 µM (inactive) and the GI50 [51] was > 100 µM (inactive). For the same compound, the GI50 [52] was > 100 µM (inactive), the GI50 [53] was > 100 µM (inactive) and the GI50 [54] was > 100 µM (inactive). For the same compound, the GI50 [55] was > 100 µM (inactive), the GI50 [56] was > 100 µM (inactive) and the GI50 [57] was > 100 µM (inactive).

O=[N+]([O-])c1ccc(Oc2c(Cl)cc(S(=O)(=O)N/C(=N\O)Nc3ccc(Cl)cc3)cc2Cl)cc1 was tested, and the GI50 [1] was 7.66 µM (inactive), the GI50 [2] was 13.5 µM (inactive) and the GI50 [3] was 12.6 µM (inactive). The GI50 [58] was 8.22 µM (inactive), the GI50 [4] was 13 µM (inactive) and the GI50 [5] was 5.57 µM (inactive). The GI50 [6] was 14.4 µM (inactive), the GI50 [7] was 14 µM (inactive) and the GI50 [8] was 13.6 µM (inactive). The GI50 [9] was 13.8 µM (inactive), the GI50 [10] was 13.1 µM (inactive) and the GI50 [11] was 12.5 µM (inactive). For the same compound, the GI50 [12] was 9.98 µM (inactive), the GI50 [13] was 4.02 µM (inactive) and the GI50 [14] was 7.98 µM (inactive). The GI50 [15] was 15.7 µM (inactive), the GI50 [16] was 13.1 µM (inactive) and the GI50 [17] was 9.44 µM (inactive). For the same compound, the GI50 [18] was 15.1 µM (inactive), the GI50 [19] was 3.94 µM (inactive) and the GI50 [20] was 11 µM (inactive). For the same compound, the GI50 [21] was 5.38 µM (inactive), the GI50 [23] was 10.4 µM (inactive) and the GI50 [24] was 2.31 µM (inactive). For the same compound, the GI50 [25] was 5.87 µM (inactive), the GI50 [26] was 11.2 µM (inactive) and the GI50 [27] was 7 µM (inactive). The GI50 [28] was 10.6 µM (inactive), the GI50 [29] was 13.9 µM (inactive) and the GI50 [30] was 3.15 µM (inactive). For the same compound, the GI50 [31] was 13.5 µM (inactive), the GI50 [32] was 2.47 µM (inactive) and the GI50 [33] was 12.5 µM (inactive). The GI50 [34] was 15.1 µM (inactive), the GI50 [35] was 10.5 µM (inactive) and the GI50 [36] was 12 µM (inactive). The GI50 [37] was 13.5 µM (inactive), the GI50 [38] was 12.6 µM (inactive) and the GI50 [39] was 14 µM (inactive). The GI50 [59] was 4.1 µM (inactive), the GI50 [40] was 11.2 µM and the GI50 [41] was 11.9 µM (inactive). The GI50 [42] was 15.2 µM (inactive), the GI50 [43] was 15.2 µM (inactive) and the GI50 [44] was 6.11 µM (inactive). For the same compound, the GI50 [45] was 11.6 µM (inactive), the GI50 [46] was 11.5 µM (inactive) and the GI50 [47] was 10.4 µM (inactive). The GI50 [48] was 11.2 µM (inactive), the GI50 [49] was 14.8 µM (inactive) and the GI50 [50] was 5.79 µM (inactive). The GI50 [51] was 13.9 µM (inactive), the GI50 [52] was 10.9 µM (inactive) and the GI50 [53] was 14.6 µM (inactive). For the same compound, the GI50 [54] was 11.6 µM (inactive), the GI50 [55] was 12 µM (inactive) and the GI50 [56] was 12.6 µM (inactive). For the same compound, the GI50 [57] was 11.1 µM (inactive).
